Usually inhibition stands for the share of the control response that was lost under treatment. A lower inhibition goes with little suppression. One may read the IC50 as the concentration at which inhibition is half-maximal. Lower therefore signals greater potency in that assay.

The target of data set [1] is T1, Steryl-sulfatase (Homo sapiens) (UniProt P08842).
T1 sequence (whole entry): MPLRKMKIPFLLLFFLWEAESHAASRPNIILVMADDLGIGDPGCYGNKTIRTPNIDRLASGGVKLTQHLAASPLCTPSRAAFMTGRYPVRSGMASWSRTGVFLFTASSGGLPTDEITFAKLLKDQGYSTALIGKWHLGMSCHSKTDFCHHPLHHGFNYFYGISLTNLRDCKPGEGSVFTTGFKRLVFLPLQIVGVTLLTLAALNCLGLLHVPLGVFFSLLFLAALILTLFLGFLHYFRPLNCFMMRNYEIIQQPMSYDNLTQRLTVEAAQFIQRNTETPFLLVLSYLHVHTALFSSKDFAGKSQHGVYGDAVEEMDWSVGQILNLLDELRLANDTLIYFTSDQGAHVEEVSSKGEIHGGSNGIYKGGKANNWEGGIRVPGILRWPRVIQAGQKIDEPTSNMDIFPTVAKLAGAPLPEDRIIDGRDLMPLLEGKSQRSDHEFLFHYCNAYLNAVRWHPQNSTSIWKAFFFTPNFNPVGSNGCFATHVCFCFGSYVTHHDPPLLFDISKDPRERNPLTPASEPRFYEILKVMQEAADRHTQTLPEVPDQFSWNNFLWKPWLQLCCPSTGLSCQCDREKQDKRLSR
The conditions noted are these: 3.3 nM.
Description: In vitro inhibition of [6,7-3H]E1S binding to steroid sulfatase in JEG-3 human placental carcinoma cells at 3.3 nM

The target in data set [2] is T1, Steryl-sulfatase (Homo sapiens). The conditions noted are these: JEG-3, 1 uM.
Data set [3] has as its target T2, Aromatase (Homo sapiens, UniProt P11511).
T2 sequence (P11511 whole entry): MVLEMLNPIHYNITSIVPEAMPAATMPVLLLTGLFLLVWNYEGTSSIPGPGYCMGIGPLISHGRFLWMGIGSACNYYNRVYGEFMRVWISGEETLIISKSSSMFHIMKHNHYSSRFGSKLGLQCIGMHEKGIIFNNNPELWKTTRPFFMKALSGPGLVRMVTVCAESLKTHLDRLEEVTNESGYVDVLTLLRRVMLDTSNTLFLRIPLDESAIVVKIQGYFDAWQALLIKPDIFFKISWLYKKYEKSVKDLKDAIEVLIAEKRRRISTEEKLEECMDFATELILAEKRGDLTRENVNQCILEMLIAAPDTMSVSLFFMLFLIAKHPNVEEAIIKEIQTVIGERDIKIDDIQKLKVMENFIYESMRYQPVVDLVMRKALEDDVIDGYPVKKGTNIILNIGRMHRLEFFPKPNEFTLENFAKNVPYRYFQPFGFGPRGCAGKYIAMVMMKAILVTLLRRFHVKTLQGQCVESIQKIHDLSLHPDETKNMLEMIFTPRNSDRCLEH
The data set is described as follows: Percent reduction in aromatase P450 19A1 binding inhibition after JEG-3 cell pretreatment at 1 uM (from 86.5+/-1.4% to 23+/-1%). It is filed as cell-based. The conditions noted are these: jeg-3, 1 µM.

For data set [4], the target named is T2, Aromatase.
Description: In vitro inhibition of [1-beta-3H]-androstenedione binding to Cytochrome P450 19A1 of JEG-3 human placental carcinoma cells
Data set [5] addresses T1, Steryl-sulfatase (Homo sapiens). The data set is described as follows: In vitro inhibition of [6,7-3H]E1S binding to steroid sulfatase in JEG-3 human placental carcinoma cells; Not active.

Molecules are shown by their SMILES. Active and inactive are the calls of the source. The calls are words filed in the database; no cut-off is given here.

As for `NS(=O)(=O)Oc1ccc2c3c(c(=O)oc2c1)CCCCC3`, the inhibition in data set [1] is 50%. `N#Cc1ccc(N(Cc2ccc(OS(N)(=O)=O)cc2)n2cnnc2)cc1`: in data set [2], the NS result is “inactive”. Besides, the Reduction in data set [3] is recorded as 63.5%.

For the compound `N#Cc1ccc(N(Cc2ccc(Br)cc2)n2cnnc2)cc1`, the IC50 in data set [4] came to 0.5 nM. Also, the NA entry in data set [5] is “inactive”.
